In US20260199350A1, “FLAVONES, QUINOLINONES, QUINAZOLINONES, AND AURONES, AND USES IN CK2-MEDIATED DISEASES” (Salk Institute for Biological Studies, priority 2022, published 2026):
pIC50: −log10 of the molar value. Converted amounts (≈) assume the structure as drawn. Read-outs that look alike come from different tables or passages of the source.

Key:
CK2A1 = target: T1, CK2A1 (Homo sapiens, UniProt P68400); assay: Radiometric kinase assay (Eurofins), CK2A1; type: biochemical; details: read-out: CK2A1 RAD IC50
T1 construct: purchased Eurofins
Excerpt: FIGS. 4A-4F characterize flavones for in vitro and in-cell CK2 inhibition. […] Representative of two independent experiments. […] Nonlinear fit was used to calculate IC50. […] Nonlinear fit was used to calculate IC50. […] Nonlinear fit was used to calculate IC50. […] Normalized to DMSO, data are representative of three independent experiments.
(§1) • ^1Radiometric kinase assay from Eurofins. Performed in astrocytes with a Promega Lumit IL-6 kit.

CK2A2 = target: T2, CK2A2 (Homo sapiens, UniProt P19784); assay: Radiometric kinase assay (Eurofins), CK2A2; type: biochemical; details: read-out: CK2A2 RAD IC50
T2 construct: purchased Eurofins
Excerpt: as §1

IL-6 secretion = IL-6 secretion assay in astrocytes (Promega Lumit IL-6 kit); type: cell-based, human; details: Homo sapiens, Astrocyte, read-out: IL6-Inhib.
Description: IL-6 secretion assay. HCAs were plated at 20,000 cells per well in white clear bottom 96-well plates. Two to three days later, media was removed and replaced with media containing 10 ng/mL IL1B and compound dilution series. Five hours later, plates were processed using the Lumit IL-6 Assay Kit (Promega W6030) according to the manufacturer's instructions.
• ^1Radiometric kinase assay from Eurofins. Performed in astrocytes with a Promega Lumit IL-6 kit. A series of halogenated flavones was generated and assayed (Table 3).

Aqueous solubility = type: physicochemical; details: read-out: Aqueous Solubility
[1] = aqueous (not further specified), Table 3
[2] = aqueous medium (not further specified), Table 8

T2 sequence (P19784 whole entry): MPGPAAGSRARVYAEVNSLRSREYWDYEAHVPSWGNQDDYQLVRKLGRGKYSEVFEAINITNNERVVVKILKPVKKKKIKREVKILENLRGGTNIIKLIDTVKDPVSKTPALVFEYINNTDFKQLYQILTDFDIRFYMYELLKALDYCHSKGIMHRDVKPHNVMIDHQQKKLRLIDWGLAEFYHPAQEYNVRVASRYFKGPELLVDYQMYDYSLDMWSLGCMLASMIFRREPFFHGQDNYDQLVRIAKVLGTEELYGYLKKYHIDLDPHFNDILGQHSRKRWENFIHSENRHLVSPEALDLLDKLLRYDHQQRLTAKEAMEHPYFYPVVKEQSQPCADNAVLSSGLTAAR
T1 sequence (P68400 whole entry): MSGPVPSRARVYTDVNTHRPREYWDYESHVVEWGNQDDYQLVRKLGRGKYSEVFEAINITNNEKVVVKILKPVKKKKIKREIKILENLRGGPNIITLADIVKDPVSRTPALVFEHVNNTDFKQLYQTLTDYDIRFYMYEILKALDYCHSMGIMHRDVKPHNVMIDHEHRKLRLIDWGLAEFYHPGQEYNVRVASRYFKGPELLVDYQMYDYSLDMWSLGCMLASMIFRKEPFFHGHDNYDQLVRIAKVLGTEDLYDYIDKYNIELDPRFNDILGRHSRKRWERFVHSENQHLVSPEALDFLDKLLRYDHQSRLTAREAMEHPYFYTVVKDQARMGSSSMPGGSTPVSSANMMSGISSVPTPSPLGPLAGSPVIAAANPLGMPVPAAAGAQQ

| pIC50 (CK2A1; Table 3, halogenated flavones) | pIC50 (CK2A2; Table 3, halogenated flavones) | pIC50 (IL-6 secretion; Table 3) | solubility (Aqueous solubility; [1]) [µM] | pIC50 (CK2A1; Table 11, aurones) | pIC50 (CK2A2; Table 11, aurones) | pIC50 (IL-6 secretion; Table 11) | solubility (Aqueous solubility; Table 11) [µM] | Structure (SMILES) | also measured |
| --- | --- | --- | --- | --- | --- | --- | --- | --- | --- |
| 7.82 | 7.92 | 5.32 | 39.9 (≈ 13.6 µg/mL) | – | – | – | – | O=c1cc(-c2ccc(O)c(Cl)c2)oc2c(Cl)cc(Cl)cc12 [JKT.725A] | – |
| – | – | – | – | 7.36 | 7.59 | 5.47 | 7.8 (≈ 3.36 µg/mL) | O=C1/C(=C/c2ccc(O)c(Cl)c2)Oc2c(Br)cc(Br)cc21 [JKT.726A] | – |
| – | – | – | – | < 5.30 | < 5.30 | 5.33 | 73.7 (≈ 31.7 µg/mL) | O=C1/C(=C/c2ccc(O)cc2Cl)Oc2c(Br)cc(Br)cc21 [JKT.727A] | – |
| – | – | – | – | 7.09 | 7.15 | 5.77 | 17.7 (≈ 9.24 µg/mL) | O=C1/C(=C/c2ccc(O)c(I)c2)Oc2c(Br)cc(Br)cc21 [JKT.728A] | – |
| – | – | – | – | – | – | – | – | O=c1[nH]c(-c2ccc(O)c(Br)c2)nc2c(Br)cc(Br)cc12 [JKT.734C] | pIC50 (CK2A1; Table 8, quinazolinones): 7.62; pIC50 (CK2A2; Table 8, quinazolinones): 7.38; pIC50 (IL-6 secretion; Table 8): < 5.00; solubility (Aqueous solubility; [2]): > 200 µM |
| – | – | – | – | – | – | – | – | COc1cc(-c2cc(=O)c3cc(Br)cc(Br)c3[nH]2)ccc1O [JKT.736A] | pIC50 (CK2A1; Table 6, quinolinones): 7.66; pIC50 (CK2A2; Table 6, quinolinones): 7.82; pIC50 (IL-6 secretion; Table 6): 5.41; solubility (Aqueous solubility; Table 6): 10 µM (≈ 4.25 µg/mL) |
| – | – | – | – | – | – | – | – | COc1cc(-c2nc3c(Br)cc(Br)cc3c(=O)[nH]2)ccc1O [JKT.737B] | pIC50 (CK2A1; Table 8, quinazolinones): 6.06; pIC50 (CK2A2; Table 8, quinazolinones): 5.55; pIC50 (IL-6 secretion; Table 8): < 5.00 |
| 7.89 | 7.77 | 5.43 | 5 (≈ 1.98 µg/mL) | – | – | – | – | O=c1cc(-c2ccc(O)c(Br)c2)oc2c(Br)cccc12 [JKT.744B] | – |
| 7.70 | 7.96 | 5.52 | > 200 | – | – | – | – | COc1c(Br)cc2c(=O)cc(-c3ccc(O)c(Br)c3)oc2c1Br [JKT.745A] | – |
| 7.62 | 8.05 | 5.41 | 24.3 (≈ 11.2 µg/mL) | – | – | – | – | COc1c(Br)cc2c(=O)cc(-c3ccc(O)c(Cl)c3)oc2c1Br [JKT.748A] | – |
| 7.96 | 7.74 | 5.32 | 36.5 (≈ 12.8 µg/mL) | – | – | – | – | O=c1cc(-c2ccc(O)c(Cl)c2)oc2c(Br)cccc12 [JKT.749A] | – |
| 6.24 | 6.33 | 5.66 | 124 (≈ 61.5 µg/mL) | – | – | – | – | COc1c(Br)cc2c(=O)cc(-c3ccc(O)c(C(F)(F)F)c3)oc2c1Br [JKT.750A] | – |
| 6.20 | 6.20 | 5.30 | 4 (≈ 1.54 µg/mL) | – | – | – | – | O=c1cc(-c2ccc(O)c(C(F)(F)F)c2)oc2c(Br)cccc12 [JKT.751A] | – |
| < 5.30 | 5.73 | < 5.00 | 109 (≈ 50.5 µg/mL) | – | – | – | – | COc1c(Br)cc2c(=O)cc(-c3cc(F)c(O)c(F)c3)oc2c1Br [JKT.753A] | – |
| – | – | – | – | < 5.30 | < 5.30 | 5.52 | 2.7 (≈ 1.28 µg/mL) | O=C1/C(=C/c2ccc(O)cc2Br)Oc2c(Br)cc(Br)cc21 [JKT.758A] | – |
| – | – | – | – | 7.24 | 7.36 | 5.64 | 3.6 (≈ 1.82 µg/mL) | COc1c(Br)cc2c(c1Br)O/C(=C\c1ccc(O)c(Br)c1)C2=O [JKT.759A] | – |
| – | – | – | – | < 5.30 | < 5.30 | 5.03 | 184 (≈ 92.7 µg/mL) | COc1c(Br)cc2c(c1Br)O/C(=C\c1ccc(O)cc1Br)C2=O [JKT.760A] | – |
| – | – | – | – | 7.17 | 7.32 | 5.60 | 120 (≈ 55.2 µg/mL) | COc1c(Br)cc2c(c1Br)O/C(=C\c1ccc(O)c(Cl)c1)C2=O [JKT.761A] | – |
| – | – | – | – | < 5.30 | < 5.30 | 5.36 | 58.6 (≈ 27 µg/mL) | COc1c(Br)cc2c(c1Br)O/C(=C\c1ccc(O)cc1Cl)C2=O [JKT.762A] | – |
| – | – | – | – | 6.22 | 6.20 | 5.57 | 7.9 (≈ 3.9 µg/mL) | COc1c(Br)cc2c(c1Br)O/C(=C\c1ccc(O)c(C(F)(F)F)c1)C2=O [JKT.763A] | – |
| – | – | – | – | 6.28 | 6.42 | 4.92 | < 0.01 | COc1cc(/C=C2\Oc3c(cc(Br)c(OC)c3Br)C2=O)ccc1O [JKT.764A] | – |
| – | – | – | – | 5.61 | 6.70 | 4.82 | > 200 | COc1c(Br)cc2c(c1Br)O/C(=C\c1ccc(C(=O)O)cc1)C2=O [JKT.765A] | – |
| – | – | – | – | – | – | – | – | O=c1[nH]c(-c2ccc(O)c(Cl)c2)nc2c(Br)cc(Br)cc12 [JKT.772A] | pIC50 (CK2A1; Table 8, quinazolinones): 7.64; pIC50 (CK2A2; Table 8, quinazolinones): 7.14; pIC50 (IL-6 secretion; Table 8): 4.96; solubility (Aqueous solubility; [2]): < 0.01 µM |
| – | – | – | – | – | – | – | – | COc1nc(-c2nc3c(Br)nc(Br)cc3c(=O)[nH]2)ccc1O [JKT.976B] | pIC50 (CK2A1; Table 8, quinazolinones): 6.63; pIC50 (CK2A2; Table 8, quinazolinones): 6.31; pIC50 (IL-6 secretion; Table 8): < 5.00 |
